Test results reported in patent US4929601A, “Tripeptides useful as immunostimulants as well as in the prevention of metastases” (Ellem Industria Farmaceutica, S.p.A., priority 1987, dated 1990).

What was measured:
Assay type in all cases: cell-based
Human T lymphocytes [1] = experiment: Stimulation of lymphokine production in vitro: BCGF activity of supernatants
Procedure: (§1) Human T lymphocytes have been incubated with PHA and with or without the peptides under examination for 24 hours (in the case of IL-2) or 72 hours (in the case of BCGF).
(§2) The supernatants have been collected, filtered (0.2 μm) and assayed for the presence of IL-2 or BCGF activity, by adding them at different concentrations to fresh T lymphocytes or to long term cultured B cells. The proliferating activity of these cells, dependent on the presence of the respective growth factor, has been evaluated through 3H-thymidine incorporation.

Human T lymphocytes [2] = experiment: Stimulation of lymphokine production in vitro: TCGF (IL-2) activity of supernatants
Procedure: as §1, §2

[3] = system: pure human T lymphocytes, without macrophages; experiment: Lymphokine production by pure human T lymphocytes without macrophages (+IL-1): BCGF activity
Description: as §2
(§3) The lymphokine production by human T lymphocytes purified through […] on nylon wool column has been evaluated with the same methods as in the previous experiment.
(§4) In order to obviate the lack of macrophages, recombinant IL-1 β (Genzyme) has been added at the concentration of 25 Units/ml.

[4] = system: pure human T lymphocytes, without macrophages; experiment: Lymphokine production by pure human T lymphocytes without macrophages (+IL-1): TCGF activity; conditions: 1 mcg/ml
Description: as §2, §3, §4

## N=C(N)NCCC[C@H](N)C(=O)NCC(=O)N[C@@H](CC(=O)O)C(=O)O [ARG--GLY--ASP, L-Arginyl-glycyl-L-aspartic acid]
Human T lymphocytes [1]; 3.125% of supernatant
  BCGF activity Δ %: +257%
Human T lymphocytes [1]; 3.125% of supernatant, T + PHA 1345
  BCGF ACTIVITY (mean): 4800 COUNTS PER MINUTE
Human T lymphocytes [1]; 6.25% of supernatant
  BCGF activity Δ %: +299%
Human T lymphocytes [1]; 6.25% of supernatant, T + PHA 2156
  BCGF ACTIVITY (mean): 8611 COUNTS PER MINUTE
Human T lymphocytes [1]; 12.5% of supernatant
  BCGF activity Δ %: +206%
Human T lymphocytes [1]; 12.5% of supernatant, T + PHA 5402
  BCGF ACTIVITY (mean): 16550 COUNTS PER MINUTE
Human T lymphocytes [1]; 25% of supernatant
  BCGF activity Δ %: +24%
Human T lymphocytes [1]; 25% of supernatant, T + PHA 15030
  BCGF ACTIVITY (mean): 18645 COUNTS PER MINUTE
Human T lymphocytes [1]; 50% of supernatant
  BCGF activity Δ %: +19%
Human T lymphocytes [1]; 50% of supernatant, T + PHA 17297
  BCGF ACTIVITY (mean): 20508 COUNTS PER MINUTE
Human T lymphocytes [1]; IL-2 and BCGF, slightly lower than Arg-Lys-Glu, higher than Arg-Lys-Asp
  stimulation of the growth factor production: marked effect of stimulation
Human T lymphocytes [2]; 3.125% of supernatant
  TCGF activity Δ %: +107%
Human T lymphocytes [2]; 3.125% of supernatant, T + PHA 1564
  TCGF ACTIVITY (mean): 3245 COUNTS PER MINUTE
Human T lymphocytes [2]; 6.25% of supernatant
  TCGF activity Δ %: +224%
Human T lymphocytes [2]; 6.25% of supernatant, T + PHA 2622
  TCGF ACTIVITY (mean): 8496 COUNTS PER MINUTE
Human T lymphocytes [2]; 12.5% of supernatant
  TCGF activity Δ %: +227%
Human T lymphocytes [2]; 12.5% of supernatant, T + PHA 4012
  TCGF ACTIVITY (mean): 13113 COUNTS PER MINUTE
Human T lymphocytes [2]; 25% of supernatant
  TCGF activity Δ %: +105%
Human T lymphocytes [2]; 25% of supernatant, T + PHA 7824
  TCGF ACTIVITY (mean): 16609 COUNTS PER MINUTE
Human T lymphocytes [2]; 50% of supernatant
  TCGF activity Δ %: +29%
Human T lymphocytes [2]; 50% of supernatant, T + PHA 14086
  TCGF ACTIVITY (mean): 18167 COUNTS PER MINUTE
[3]; 1 mcg/ml, 3.125% of supernatant
  BCGF activity Δ %: +94%
[3]; 1 mcg/ml, 3.125% of supernatant, T + PHA + IL-1 318
  BCGF ACTIVITY c.p.m.: 618 c.p.m.
[3]; 1 mcg/ml, 6.25% of supernatant
  BCGF activity Δ %: +9%
[3]; 1 mcg/ml, 6.25% of supernatant, T + PHA + IL-1 582
  BCGF ACTIVITY c.p.m.: 634 c.p.m.
[3]; 1 mcg/ml, 12.5% of supernatant
  BCGF activity Δ %: +141%
[3]; 1 mcg/ml, 12.5% of supernatant, T + PHA + IL-1 1104
  BCGF ACTIVITY c.p.m.: 2663 c.p.m.
[3]; 1 mcg/ml, 25% of supernatant
  BCGF activity Δ %: +106%
[3]; 1 mcg/ml, 25% of supernatant, T + PHA + IL-1 2507
  BCGF ACTIVITY c.p.m.: 5172 c.p.m.
[3]; 1 mcg/ml, 50% of supernatant
  BCGF activity Δ %: +95%
[3]; 1 mcg/ml, 50% of supernatant, T + PHA + IL-1 5056
  BCGF ACTIVITY c.p.m.: 9837 c.p.m.
[3]; 10 mcg/ml, 3.125% of supernatant
  BCGF activity Δ %: +147%
[3]; 10 mcg/ml, 3.125% of supernatant, T + PHA + IL-1 318
  BCGF ACTIVITY c.p.m.: 784 c.p.m.
[3]; 10 mcg/ml, 6.25% of supernatant
  BCGF activity Δ %: +49%
[3]; 10 mcg/ml, 6.25% of supernatant, T + PHA + IL-1 582
  BCGF ACTIVITY c.p.m.: 866 c.p.m.
[3]; 10 mcg/ml, 12.5% of supernatant
  BCGF activity Δ %: +171%
[3]; 10 mcg/ml, 12.5% of supernatant, T + PHA + IL-1 1104
  BCGF ACTIVITY c.p.m.: 2997 c.p.m.
[3]; 10 mcg/ml, 25% of supernatant
  BCGF activity Δ %: +173%
[3]; 10 mcg/ml, 25% of supernatant, T + PHA + IL-1 2507
  BCGF ACTIVITY c.p.m.: 6849 c.p.m.
[3]; 10 mcg/ml, 50% of supernatant
  BCGF activity Δ %: +125%
[3]; 10 mcg/ml, 50% of supernatant, T + PHA + IL-1 5056
  BCGF ACTIVITY c.p.m.: 11364 c.p.m.
[3]; both for IL-2 and BCGF, IL-1 β 25 Units/ml
  effect on lymphokine production by pure T lymphocytes: comparable with that of the other reference compounds
[4]; 3.125% of supernatant
  TCGF activity Δ %: +17%
[4]; 3.125% of supernatant, T + PHA + IL-1 1696
  TCGF ACTIVITY c.p.m.: 1984 c.p.m.
[4]; 6.25% of supernatant
  TCGF activity Δ %: +145%
